What was measured:
Bax = test: WB detection of apoptosis-related protein Bax in hippocampal tissues of PTZ-kindling rats; type: in vivo, Wistar rats; details: hippocampus at end of 14-day treatment, 100 mg/kg intragastric, versus model group
Description: (§1) At the end of the experiment, the brains and hippocampi of the laboratory animals were collected and frozen at −80° C.
(§2) 4. WB Detection of Expression of Apoptosis-Related Proteins Bax and Bcl-2 in Hippocampal Tissues of Rats:
(§3) The hippocampal tissue was cut into small pieces, the lysis buffer (protease and phosphatase inhibitors added to the lysis buffer) was added at a ratio of 150-250 μL:20 mg, and the mixture was homogenized with a homogenizer until complete lysis. The sample obtained after the lysis was centrifuged at 12,000 g at 4° C. for 15 min. The supernatant was taken, subjected to protein quantification, and stored in a refrigerator at −80° C.
(§4) • (1) Standard curve plotting: a microplate was taken, and reagents were added according to the table below. […]
(§5) About 25 μg of the protein was loaded into each well, and the loading amount can be increased according to the experiment requirements. According to the results of protein quantification, the required protein was taken and a proper amount of sample loading buffer was added. […]

Bcl-2 = test: WB detection of apoptosis-related protein Bcl-2 in hippocampal tissues of PTZ-kindling rats; type: in vivo, Wistar rats; details: hippocampus at end of 14-day treatment, 100 mg/kg intragastric
Description: as §1, §2, §3, §4, §5

[1] = system: PTZ-kindling epileptic rats; test: PTZ-kindling epilepsy model: seizure duration, Ono's grade, latency; type: in vivo, Wistar rats
Description: Wistar rats, SPF grade, weighing 240-260 g, aged 6-8 weeks, female, purchased from Shanghai Slac Laboratory Animal Co., Ltd. Feeding environment: the temperature was kept at 22±1° C., and the humidity was kept at 65%-70%, in a 12/12 hour light/dark illumination cycle, with free access to water.
After 1 week of acclimatization of all rats, modeling was started. A 1.75% PTZ solution was prepared with normal saline, and the prepared PTZ solution was injected intraperitoneally at a dose of 35 mg/kg. PTZ was injected once every other day, and behavioral changes of the rats were observed within 30 min after the PTZ injection, and the seizure grade was recorded.
During the experiment, after 11 consecutive injections of PTZ, the seizure grade was recorded. All rats had 5 consecutive recordings of grade 2 or above, and modeling for all rats was successful after 11 consecutive injections of PZT into all rats.
After the modeling was successful, the rats were randomly grouped. Treatment was started. All Wistar rats were weighed and doses for the intragastric administration were calculated.
Before the administration and on day 7 and day 14 after the administration, the prepared PTZ solution was injected intraperitoneally at a dose of 35 mg/kg 1 h after intragastric administration. Behavioral changes of the rats were observed within 30 min after the PTZ injection.
Behavioral seizure indexes before and after the administration were recorded and graded according to Ono's grading. The seizure latency, seizure grade and seizure duration were recorded.

[2] = system: mouse model of Parkinson's disease established by the intraperitoneal injection of MPTP; test: Behavioral balance beam score in MPTP model of Parkinson's disease; type: in vivo, C57/BL6 mice; details: scale 0-5
Description: C57/BL6 mice, SPF grade, weighing 18-20 g, aged 6-8 weeks, male, purchased from Shanghai Slac Laboratory Animal Co., Ltd. Feeding environment: the temperature was kept at 22±1° C., and the humidity was kept at 65%-70%, in a 12/12 hour light/dark illumination cycle, with free access to water.
(§6) • (1) SPF-grade C57 mice aged 6-8 weeks were purchased and acclimatized for one week, and subsequently the modeling was started. • (2) MPTP (25 mg/kg) was intraperitoneally injected once a day for 7 consecutive days. The blank group was left untreated. • (3) After modeling, administration was started. […] The intragastric administration was performed once a day for 14 consecutive days. • (4) Behavioral test was first performed by balance beam test scoring.
A beam of 80 cm long and 2.5 cm wide was horizontally fixed at a height of 10 cm from the table top, and subsequently, the animals were allowed to walk on the beam. […]

aspartic acid = test: Content of aspartic acid in homogenate of brain tissues of rats (kit method); type: in vivo, Wistar rats; details: PTZ rats after 14 days, 100 mg/kg intragastric (positive drug = valproate)
Description: (§7) 5. Determination of Contents of γ-Aminobutyric Acid, Glutamic Acid, Glycine, and Aspartic Acid in Rat Brain Tissue by the Kit Method
(§8) The experimental procedures and methods were referred to the kit instructions.
(§9) The contents of excitatory amino acids (glutamic acid and aspartic acid) and inhibitory neurotransmitters (γ-aminobutyric acid and glycine) in the homogenate of brain tissues were determined by an ELISA kit.

glycine = test: Content of glycine in homogenate of brain tissues of rats (kit method); type: in vivo, Wistar rats; details: PTZ rats after 14 days, 100 mg/kg intragastric (positive drug = valproate)
Description: as §7, §8, §9

dopamine = test: Content of dopamine in striatum of the model of Parkinson's disease (kit method); type: in vivo, C57/BL6 mice; details: MPTP mice; intragastric 100 mg/kg for 14 days (positive drug = amantadine 40 mg/kg)
Description: After the mice were sacrificed quickly, the brains of the mice were taken and the cerebral palliums (CPs) of the mice were isolated. After exposing the brain striatum of the mice, the striatum was weighed and homogenized after adding PBS according to a proportion. The supernatant was isolated and detected for the content of dopamine in the brain striatum.

[3] = system: tyrosine hydroxylase (TH) cells in substantia nigra (SubN); test: Tyrosine hydroxylase (TH) cells in substantia nigra (SubN) by immunohistochemistry; type: in vivo, C57/BL6 mice; details: MPTP mice, intragastric 100 mg/kg for 14 days (positive drug = amantadine 40 mg/kg)
Description: as §6
5. Determination of Tyrosine Hydroxylase (TH) Cells in Substantia Nigra (SubN) by Immunohistochemistry
The tissue should be cut using sharp knives and scissors. When cutting a tissue mass, the tissue was cut by pulling backwards from the root of the knife. […] The prepared tissue mass was fixed in 10% formalin for 48 h.
The fixed tissue was washed with running water to remove residual fixing liquid and impurities. The tissue mass was dehydrated in stages with different concentrations of ethanol (50%, 70%, 85%, 95%, up to pure alcohol (absolute ethanol)), each stage for 2 h. Dehydration must be performed in a capped flask to prevent high concentrations of ethanol from absorbing moisture in the air, resulting in reduced concentrations and incomplete dehydration. The material to be preserved can remain in 70% ethanol when being dehydrated with it. For long-term preservation, an equivalent amount of glycerol can be added. […]

γ-aminobutyric acid = test: Content of γ-aminobutyric acid in homogenate of brain tissues of rats (kit method); type: in vivo, Wistar rats; details: PTZ rats after 14 days, 100 mg/kg intragastric (positive drug = valproate)
Description: as §7, §8, §9

Solubility in water = type: physicochemical
Description: ^1[…]=0.8 Hz, 1[…]=7.6 Hz, 2[…]=6.8 Hz, 3H).

glutamic acid = test: Content of glutamic acid in homogenate of brain tissues of rats (kit method); type: in vivo, Wistar rats; details: PTZ rats after 14 days, 100 mg/kg intragastric (positive drug = valproate)
Description: as §7, §8, §9

[4] = high-purity CBD, background statement; cited from earlier work

SMILES: C=C(C)[C@@H]1CCC(C)=C[C@H]1c1c(O)cc(CCCCC)cc1OCC(=O)N[C@@H](CCSC)C(=O)[O-].[Na+] [Compound E1]
- Bax protein expression in hippocampal tissues (Bax): significant down-regulation of Bax protein expression
- Bcl-2 protein expression in hippocampal tissues (Bcl-2): significantly higher than that in the model group
- Ono's grade before treatment ([1]; grade 0-6 (Table 1), baseline before treatment): 3.17 ± 0.41
- Ono's grade on day 7 of treatment ([1]; grade 0-6, intragastric 100 mg/kg (positive drug = valproate), day 7): 3.33 ± 0.52
- Ono's grade on day 14 of treatment ([1]; grade 0-6, intragastric 100 mg/kg (positive drug = valproate), day 14): 3.33 ± 0.52
- Duration on day 7 of treatment ([1]; intragastric 100 mg/kg (positive drug = valproate 100 mg/kg), PTZ 35 mg/kg i.p. 1 h after administration, day 7): 290.50 ± 66.93 s
- Duration on day 14 of treatment ([1]; intragastric 100 mg/kg (positive drug = valproate 100 mg/kg), PTZ 35 mg/kg i.p. 1 h after administration, day 14): 299.67 ± 39.25 s
- Latency on day 7 of treatment ([1]; intragastric 100 mg/kg (positive drug = valproate), day 7): 82.83 ± 20.90 s
- Latency on day 14 of treatment ([1]; intragastric 100 mg/kg (positive drug = valproate), day 14): 87.00 ± 20.96 s
- change in duration of seizure on day 14 as compared to day 7 of treatment ([1]; intragastric 100 mg/kg, PTZ-kindling rats): no change in the duration of seizure
- Latency before treatment ([1]; latency to seizure after PTZ 35 mg/kg i.p., baseline before treatment): 85.75 ± 21.45 s
- Duration before treatment ([1]; seizure duration after PTZ 35 mg/kg i.p., baseline before treatment): 359.83 ± 14.41 s
- behavioral balance beam score, After modeling ([2]; after MPTP 25 mg/kg i.p. for 7 days, before treatment): 4.63 ± 0.52
- behavioral balance beam score, After treatment ([2]; intragastric 100 mg/kg once a day for 14 days (positive drug = amantadine 40 mg/kg)): 3.75 ± 0.89
- Aspartic acid (aspartic acid): 58.10 ± 11.71 µmol/g
- Glycine (glycine): 0.67 ± 0.07 ng/µg
- DA, content of dopamine in striatum after treatment (dopamine): 0.45 ± 0.09 # ng/mg
- TH cell positive rate [3]: 16.92 ± 3.13 %
- γ-aminobutyric acid (γ-aminobutyric acid): 771.17 ± 81.98 nmol/g
- solubility (Solubility in water): 27 mg/mL
- Glutamic acid (glutamic acid): 0.14 ± 0.02 µmol/mg

SMILES: C=C(C)[C@@H]1CCC(C)=C[C@H]1c1c(O)cc(CCCCC)cc1O [CBD, 2-[(1R,6R)-3-methyl-6-(1-methylvinyl)-2-cyclohexen-1-yl]-5-pentyl-1,3-benzenediol]
- solubility in water [4]: almost insoluble in water

SMILES: C=C(C)[C@@H]1CCC(C)=C[C@H]1c1c(OCC(=O)N[C@@H](CCSC)C(=O)[O-])cc(CCCCC)cc1OCC(=O)N[C@@H](CCSC)C(=O)[O-].[Na+].[Na+] [Compound E2]
- solubility (Solubility in water): 200 mg/mL

Source: patent publication US20240417371A1, “CANNABIDIOL DERIVATIVE, AND PREPARATION METHOD THEREFOR AND USE THEREOF” (priority 2021, published 2024)
